Measurements: the supplement of paper PMC11451515

What was measured:
Experiment in all cases: AUC of viability dose-response curve (% viability x log10 dose units); higher = less sensitive
Details in all cases: 48 h
[1] = system: SEM cells
Summary of the method: (§1)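 Leukemia cells adapted to each medium (500 or 1000 cells/well, 1536-well plates) were exposed to library compounds in DMSO for 48 h at 37°C at 11 threefold doses, 47 μM to 0.79 nM. Luminescence by CellTiter-Glo One was normalised per plate to DMSO and cell-free wells, then fitted with a four-parameter log-logistic curve on log10 dose. Curves above full viability were scaled and quality-control failures removed before area under the curve was integrated by trapezoidal rule.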

[2] = system: P12-Ichikawa
Summary of the method: as §1

[3] = system: NOMO1
Summary of the method: as §1

[4] = RPMI 5 mM glucose + 10% dialyzed FBS

| Structure (SMILES) | AUC of viability dose-response curve ([1]; HPLM + 10% dialyzed FBS) | AUC of viability dose-response curve ([1]; RPMI 5 mM glucose + 10% FBS) | AUC of viability dose-response curve [1, 4] | AUC of viability dose-response curve ([2]; HPLM + 10% dialyzed FBS) | AUC of viability dose-response curve ([2]; RPMI 5 mM glucose + 10% FBS) | AUC of viability dose-response curve [2, 4] | AUC of viability dose-response curve ([3]; HPLM + 10% dialyzed FBS) | AUC of viability dose-response curve ([3]; RPMI 5 mM glucose + 10% FBS) | AUC of viability dose-response curve [3, 4] |
| --- | --- | --- | --- | --- | --- | --- | --- | --- | --- |
| CCN1C[C@]2(OC(=O)c3ccccc3NC(C)=O)CC[C@H](OC)[C@@]34[C@@H]2C[C@@H]([C@@H]13)[C@@]1(O)C[C@H](OC)[C@H]2C[C@@H]4[C@]1(O)[C@H]2OC | 461 | 439 | 430 | 473 | 475 | 469 | 477 | 465 | 477 |
| NC(=O)c1cccc(N)c1 | 436 | 384 | 442 | 452 | 451 | 454 | 471 | 454 | 465 |
| N[C@@H](CC(=O)N1CCn2c(nnc2C(F)(F)F)C1)Cc1cc(F)c(F)cc1F | 448 | 453 | 449 | 463 | 453 | 445 | 451 | 417 | 461 |
| CN(C)c1ccc2cc(C(=O)N[C@@H](CCCNC(=N)CCl)C(=O)NCc3ccccc3)ccc2c1 | 450 | 434 | 444 | 451 | 446 | 449 | 443 | 447 | 451 |
| COc1cccc2c1C(=O)c1c(O)c3c(c(O)c1C2=O)C[C@@](O)(C(C)=O)C[C@@H]3O[C@H]1C[C@H](N)[C@H](O)[C@H](C)O1 | 192 | 190 | 209 | 274 | 264 | 263 | 265 | 262 | 259 |
| NC(=O)Nc1cc(-c2ccc(CN3CCOCC3)cc2)sc1C(N)=O | 262 | 240 | 240 | 236 | 246 | 266 | 369 | 331 | 338 |
| CC(C)NCC(O)COc1ccc(CCOCC2CC2)cc1 (centres undefined) | 470 | 458 | 468 | 474 | 469 | 461 | 427 | 453 | 448 |
| COc1cc2ncnc(Nc3cccc(Br)c3)c2cc1OC | 447 | 460 | 448 | 451 | 462 | 464 | 475 | 447 | 460 |
| C#C[C@]1(O)CC[C@H]2[C@@H]3CCc4cc(OC)ccc4[C@H]3CC[C@@]21C | 444 | 470 | 471 | 433 | 468 | 471 | 453 | 457 | 457 |
| CC(NCc1ccc2c(c1)[nH]/c(=N\C(=O)c1ccc(-c3cn[nH]c3)s1)n2CC(C)(C)O)C(C)(C)C (centres undefined) | 177 | 194 | 170 | 350 | 349 | 345 | 321 | 358 | 347 |
| CC(C)C[C@H](NC(=O)[C@H](Cc1ccccc1)NC(=O)c1cnccn1)B(O)O | 138 | 147 | 129 | 173 | 173 | 171 | 182 | 171 | 181 |
